Measured values as given in US20240390335A1, “PHARMACEUTICAL COMPOSITION CONTAINING BETA-LACTAM COMPOUND AND USE THEREOF” (priority 2021, published 2024).
≈ marks a conversion by molar mass, not a printed value.

What was measured:
Escherichia coli [1] = experiment: MIC assay of individual compounds (microdilution, CLSI/NCCLS); assay type: cell-based; conditions: individual compound
Method: (§1) Mueller-Hinton broth (MH broth) medium, Trypticase Soy Broth (TSB Broth) medium, purchased from BD Difco, Cockeysville, MD, USA; • 96-well plate: Corning Costar, Cambridge, MA, USA; • Test method: the antibacterial activities were tested by the microdilution method according to the CLSI/NCCLS standard.
(§2) (1) Preparation of the test samples: 4 mg of each sample was taken, and was prepared into a test solution at 1,024 μg/mL with MH broth, and the test solution was diluted two-fold in a 96-well plate to prepare solutions of a series of gradient concentrations, the volume in each well being 90 μL.
(§3) (2) Preparation of a bacteria solution: The test strains were amplified by Trypticase Soy Broth (TSB Broth) according to the CLSI/NCCLS standard.
(§4) (3) Addition of the samples: a bacteria solution with a concentration of 6×10^5 cfu/mL was prepared, and 10 μL of the bacteria solution was pipetted into each well of the 96-well plate. Three parallel experiments were set up for each concentration and the results were averaged. To the negative control group, 10 μL of the bacterial solution and 90 μL MH broth were added.
(§5) (4) Incubation: the 96-well plate was placed in a 37° C. constant-temperature incubator for 18 hours, and the growth of the strains was observed. The drug concentration in the well with no microbial growth was recorded as the MIC.

Enterobacter cloacae [2] = experiment: as above; assay type: cell-based; conditions: individual compound
Method: as §1, §2, §3, §4, §5

Klebsiella pneumoniae [3] = experiment: as above; assay type: cell-based; conditions: individual compound
Method: as §1, §2, §3, §4, §5

[4] = test system: drug-resistant Enterobacteriaceae; experiment: MIC assay of individual compounds, summary over Enterobacteriaceae strains; assay type: cell-based; conditions: against the aforementioned Enterobacteriaceae
Method: as §1, §2, §3, §4, §5

Escherichia coli [5] = experiment: Combined in vitro use, checkerboard dilution method; assay type: cell-based; conditions: compound of formula (I-1) combined with avibactam
Method: (§6) Mueller-Hinton broth (MH broth) medium, Trypticase Soy Broth (TSB Broth) medium, purchased from BD Difco, Cockeysville, MD, USA; • 96-well plate: Corning Costar, Cambridge, MA, USA; • Test method: the checkerboard dilution method was used for determination.
(§7) (1) Preparation of the test samples: 4 mg of each sample was taken and was prepared into a test solution at 2,048 μg/mL with MH broth, and the test solution was diluted two-fold in a 96-well plate to prepare solutions of a series of gradient concentrations.
as §3
(§8) (3) Addition of the samples: 10 μL of the bacteria solution with a concentration of 6×10^5 CFU/mL was pipetted into each well of the 96-well plate. Each well contained the antibacterial drugs (the compound of formula (I-1) and the compound of formula (I-2)) diluted two-fold with broth and the aforementioned lactamase inhibitor or efflux pump inhibitor. […] The samples were mixed thoroughly. Three parallel experiments were set up for each concentration and the results were averaged. To the negative control group, 10 μL of the bacterial solution and 90 μL MH broth were added.
(§9) (4) Incubation: the 96-well plate was placed in a 37° C. constant-temperature incubator for 18 hours, and the growth of the strains was observed.
(§10) (5) Calculation: The in vitro effect of each drug-inhibitor combination was analyzed by calculating the FICI value: FICI=(MIC of drug A in the combination/MIC of drug A alone)+ (MIC of drug B in the combination/MIC of drug B alone).
(§11) In order to ensure the reliability of the data, three repeated tests were conducted on different dates and the results were averaged.

Enterobacter cloacae [6] = experiment: as above; assay type: cell-based; conditions: compound of formula (I-1) combined with avibactam; Enterobacter cloacae ATCC 2468
Method: as §6, §7, §3, §8, §9, §10, §11

Klebsiella pneumoniae [7] = experiment: as above; assay type: cell-based
Method: as §6, §7, §3, §8, §9, §10, §11

[8] = test system: Klebsiella pneumoniae ATCC BAA2146 (NDM-1); conditions: avibactam itself; stated as well known to those skilled in the art; cited from earlier work
[9] = Escherichia coli CCPM(A)-P-071301

NC(=O)[C@@H]1CC[C@@H]2CN1C(=O)N2OS(=O)(=O)O [Avibactam, avibactam]
MIC (Escherichia coli [1]; Escherichia coli ATCC 2469): 16 mg/L (≈ 60.3 µM) | MIC (Escherichia coli [1]; [9]): 16 mg/L (≈ 60.3 µM) | MIC (Enterobacter cloacae [2]; Enterobacter cloacae ATCC 2468): 32 mg/L (≈ 121 µM) | MIC (Enterobacter cloacae [2]; Enterobacter cloacae CCPM(A)-P-111719): 32 mg/L (≈ 121 µM) | MIC (Klebsiella pneumoniae [3]; Klebsiella pneumoniae ATCC 2146): 8 mg/L (≈ 30.2 µM) | MIC (Klebsiella pneumoniae [3]; Klebsiella pneumoniae ATCC 700603): 16 mg/L (≈ 60.3 µM) | MIC (Klebsiella pneumoniae [3]; Klebsiella pneumoniae CCPM(A)-0814R18): 16 mg/L (≈ 60.3 µM) | MIC (Klebsiella pneumoniae [3]; Klebsiella pneumoniae CCPM(A)-0814R33): 16 mg/L (≈ 60.3 µM) | MIC (Klebsiella pneumoniae [3]; Klebsiella pneumoniae CCPM(A)-0817R61): 32 mg/L (≈ 121 µM) | MIC (Klebsiella pneumoniae [3]; Klebsiella pneumoniae CCPM(A)-081301): 32 mg/L (≈ 121 µM) | MIC (Klebsiella pneumoniae [3]; Klebsiella pneumoniae CCPM(A)-081705): 16 mg/L (≈ 60.3 µM) | MIC (Klebsiella pneumoniae [3]; Klebsiella pneumoniae CCPM(A)-081715): 32 mg/L (≈ 121 µM) | MIC (Klebsiella pneumoniae [3]; Klebsiella pneumoniae CCPM(A)-081716): 16 mg/L (≈ 60.3 µM) | MIC (Klebsiella pneumoniae [3]; Klebsiella pneumoniae CCPM(A)-081729): 32 mg/L (≈ 121 µM) | activity of the inhibitor itself [4]: relatively weak activities | MIC in combination (Escherichia coli [5]; Escherichia coli ATCC 2469): 1 mg/L | MIC in combination (Escherichia coli [5]; [9]): 1 mg/L | MIC in combination (Enterobacter cloacae [6]): 4 mg/L | MIC in combination (Klebsiella pneumoniae [7]; compound of formula (I-1) combined with avibactam, Klebsiella pneumoniae ATCC 2146): 2 mg/L | MIC in combination (Klebsiella pneumoniae [7]; compound of formula (I-1) combined with avibactam, Klebsiella pneumoniae ATCC 700603): 0.5 mg/L | MIC in combination (Klebsiella pneumoniae [7]; compound of formula (I-1) combined with avibactam, Klebsiella pneumoniae CCPM(A)-0814R18): 0.5 mg/L | MIC in combination (Klebsiella pneumoniae [7]; compound of formula (I-1) combined with avibactam, Klebsiella pneumoniae CCPM(A)-0814R33): 2 mg/L | MIC in combination (Klebsiella pneumoniae [7]; compound of formula (I-1) combined with avibactam, Klebsiella pneumoniae CCPM(A)-0817R61): 0.5 mg/L | MIC in combination (Klebsiella pneumoniae [7]; compound of formula (I-1) combined with avibactam, Klebsiella pneumoniae CCPM(A)-081705): 8 mg/L | MIC in combination (Klebsiella pneumoniae [7]; compound of formula (I-1) combined with avibactam, Klebsiella pneumoniae CCPM(A)-081715): 0.5 mg/L | MIC in combination (Klebsiella pneumoniae [7]; compound of formula (I-1) combined with avibactam, Klebsiella pneumoniae CCPM(A)-081716): 8 mg/L | MIC in combination (Klebsiella pneumoniae [7]; compound of formula (I-1) combined with avibactam, Klebsiella pneumoniae CCPM(A)-081729): 8 mg/L | MIC in combination (Klebsiella pneumoniae [7]; compound of formula (I-2) combined with avibactam, Klebsiella pneumoniae ATCC 2146): 0.5 mg/L | MIC in combination (Klebsiella pneumoniae [7]; compound of formula (I-2) combined with avibactam, Klebsiella pneumoniae ATCC 700603): 0.5 mg/L | MIC in combination (Klebsiella pneumoniae [7]; compound of formula (I-2) combined with avibactam, Klebsiella pneumoniae CCPM(A)-081715): 4 mg/L | MIC in combination (Klebsiella pneumoniae [7]; compound of formula (I-2) combined with avibactam, Klebsiella pneumoniae CCPM(A)-081729): 4 mg/L | in vivo antibacterial effect on the test strain [8]: no in vivo antibacterial effect
